Where two headings read alike, the source gives them in different places.
How the values were obtained:
EOL-1 AML cell line = assay: Single agent cell viability (CellTiterGlo); assay type: cell-based; settings: Homo sapiens, EOL1, 72 h; EOL-1, single agent, 3 days incubation, CellTiterGlo; read-out: IC50
Procedure: (§1) Cell lines were cultured at 37° C. in a humidified atmosphere containing 5% CO2 and expanded in T-150 flasks. […] In order to analyse the activity of the compounds as single agents, cells were seeded and treated with nine 2-fold serial dilutions of each compound dispensed individually directly into the cell assay plates. […] All the experiments were performed in triplicates. Luminescence was quantified on a multipurpose plate reader. Single agent IC50s were calculated using standard four-parametric curve fitting.

GDM-1 AML cell line = assay: Single agent cell viability (CellTiterGlo); assay type: cell-based; settings: Homo sapiens, 72 h; GDM-1, single agent, 3 days incubation, CellTiterGlo; read-out: IC50
Procedure: as §1

HL-60 AML cell line = assay: Single agent cell viability (CellTiterGlo); assay type: cell-based; settings: Homo sapiens, 72 h; HL-60, single agent, 3 days incubation, CellTiterGlo; read-out: IC50
Procedure: as §1

KG1 AML cell line = assay: Single agent cell viability (CellTiterGlo); assay type: cell-based; settings: 72 h; KG1, single agent, 3 days incubation, CellTiterGlo; read-out: IC50
Procedure: as §1

KG1a AML cell line = assay: Single agent cell viability (CellTiterGlo); assay type: cell-based; settings: Homo sapiens, KG-1a, 72 h; KG1a, single agent, 3 days incubation, CellTiterGlo; read-out: IC50
Procedure: as §1

Kasumi-1 AML cell line = assay: Single agent cell viability (CellTiterGlo); assay type: cell-based; settings: Homo sapiens, 72 h; Kasumi-1, single agent, 3 days incubation, CellTiterGlo; read-out: IC50
Procedure: as §1

ML-2 AML cell line = assay: Single agent cell viability (CellTiterGlo); assay type: cell-based; settings: 72 h; ML-2, single agent, 3 days incubation, CellTiterGlo; read-out: IC50
Procedure: as §1

MOLM-13 AML cell line = assay: Single agent cell viability (CellTiterGlo); assay type: cell-based; settings: Homo sapiens, 72 h; MOLM-13, single agent, 3 days incubation, CellTiterGlo; read-out: IC50
Procedure: as §1

MV4; 11 AML cell line = assay: Single agent cell viability (CellTiterGlo); assay type: cell-based; settings: Homo sapiens, 72 h; MV4; 11, single agent, 3 days incubation, CellTiterGlo; read-out: IC50
Procedure: as §1

Nomo-1 AML cell line = assay: Single agent cell viability (CellTiterGlo); assay type: cell-based; settings: Homo sapiens, 72 h; Nomo-1, single agent, 3 days incubation, CellTiterGlo; read-out: IC50
Procedure: as §1

OCI-AML3 AML cell line = assay: Single agent cell viability (CellTiterGlo); assay type: cell-based; settings: Homo sapiens, OCI-AML-3, 72 h; OCI-AML3, single agent, 3 days incubation, CellTiterGlo; read-out: IC50
Procedure: as §1

PL-21 AML cell line = assay: Single agent cell viability (CellTiterGlo); assay type: cell-based; settings: 72 h; PL-21, single agent, 3 days incubation, CellTiterGlo; read-out: IC50
Procedure: as §1

THP-1 AML cell line = assay: Single agent cell viability (CellTiterGlo); assay type: cell-based; settings: Homo sapiens, 72 h; THP-1, single agent, 3 days incubation, CellTiterGlo; read-out: IC50
Procedure: as §1

[1] = system: mononuclear cells from ALL patient samples; assay: Cell viability assay (sytox blue flow cytometry) in primary ALL samples; assay type: cell-based; settings: Homo sapiens, 48 h, combination at 1:1 ratio, read-out: 50% lethal concentration (LC50)
Procedure: Bone marrow or peripheral blood samples from patients with ALL were collected after informed consent in accordance with guidelines approved by The Alfred Hospital Human research ethics committee. Mononuclear cells were isolated by Ficoll-Paque (GE Healthcare, Australia) density-gradient centrifugation, followed by red cell depletion in ammonium chloride (NH4Cl) lysis buffer at 37° C. for 10 minutes. Cells were then re-suspended in phosphate-buffered saline containing 2% Fetal Bovine serum (Sigma, Australia). Mononuclear cells were then suspended in RPMI-1640 (GIBCO, Australia) medium containing penicillin and streptomycin (GIBCO) and heat inactivated fetal bovine serum 15% (Sigma).
Freshly purified mononuclear cells from ALL patient samples were adjusted to a concentration of 2.5×10^5/ml and 100 μL of cells aliquoted per well into 96 well plates (Sigma). Cells were then treated with indicated drugs over a […] concentration range from 1 nM to 10 μM for 48 hours. For combinations assays, drugs were added at a 1:1 ratio from 1 nM to 10 μM and incubated at 37° C. 5% CO2. Cells were then stained with sytox blue nucleic acid stain (Invitrogen, Australia) and fluorescence measured by flow cytometric analysis using the LSR-II Fortessa (Becton Dickinson, Australia). FACSDiva software was used for data collection, and FlowJo software for analysis. Blast cells were gated using forward and side scatter properties. Viable cells excluding sytox blue were determined at 6 concentrations for each drug and the 50% lethal concentration (LC50, in μM) determined.

primary AML samples = primary AML samples (leukemic progenitor cells), 10 nM
[2] = system: normal human CD34+ progenitor cells; settings: 10 nM

`Nc1ccn([C@@H]2O[C@H](CO)[C@@H](O)[C@@H]2O)c(=O)n1` [Cytarabine, cytarabine] was tested, and the IC50 (EOL-1 AML cell line) was 0.09 µM, the IC50 (GDM-1 AML cell line) was 0.03 µM and the IC50 (HL-60 AML cell line) was 0.74 µM. For the same compound, the IC50 (KG1 AML cell line) was 0.17 µM, the IC50 (KG1a AML cell line) was 0.24 µM and the IC50 (Kasumi-1 AML cell line) was 1.02 µM. It also gave an IC50 (ML-2 AML cell line) of 0.03 µM, an IC50 (MOLM-13 AML cell line) of 0.19 µM and an IC50 (MV4; 11 AML cell line) of 0.14 µM. The IC50 (Nomo-1 AML cell line) was 0.99 µM, the IC50 (OCI-AML3 AML cell line) was over 2 µM and the IC50 (PL-21 AML cell line) was 0.1 µM. For the same compound, the IC50 (THP-1 AML cell line) was over 2 µM, the CC50 ([1]; ALL patient sample 01-046-2018, 48 hours) was over 100 µM and the CC50 ([1]; ALL patient sample AH6031524, 48 hours) was 51.6 µM. It also gave a CC50 ([1]; ALL patient sample AH6184311, 48 hours) of 88 µM, a CC50 ([1]; ALL patient sample AH6196680, 48 hours) of over 100 µM and a CC50 ([1]; ALL patient sample AH6198549, 48 hours) of 10.6 µM. The CC50 ([1]; ALL patient sample AH6258921, 48 hours) was over 100 µM, the CC50 ([1]; ALL patient sample AH7008157, 48 hours) was over 100 µM and the CC50 ([1]; ALL patient sample AH7024700, 48 hours) was 35.9 µM. The CC50 ([1]; ALL patient sample AH7104727, 48 hours) was over 100 µM, the CC50 ([1]; ALL patient sample TB 10-05-02, 48 hours) was over 100 µM and the CC50 ([1]; ALL patient sample TB 11-08-06, 48 hours) was over 100 µM. The CC50 ([1]; ALL patient sample TB 15-06-05, 48 hours) was over 100 µM, the CC50 ([1]; ALL patient sample TB 17-06-18, 48 hours) was over 100 µM and the CC50 ([1]; ALL patient sample TB120803, 48 hours) was over 100 µM. The CC50 ([1]; ALL patient sample TB151005, 48 hours) was over 100 µM, the clonogenic growth (primary AML samples) was “toxic” and the clonogenic growth [2] was “toxic”.
